Experimental data published in ChEMBL document CHEMBL1131216, “Anhydrolide macrolides. 2. Synthesis and antibacterial activity of 2,3-anhydro-6-O-methyl 11,12-carbazate erythromycin A analogues” (1998).
Converted amounts (≈) assume the structure as drawn.

What was measured:
Format in all cases: functional
Haemophilus influenzae = assay: In vitro antibacterial activity of DILL strain of Gram negative bacteria Haemophilus influenzae
Staphylococcus aureus [1] = assay: In vitro antibacterial activity of A5177 strain of Gram positive bacteria Staphylococcus aureus
Staphylococcus aureus [2] = assay: In vitro antibacterial activity of A-5278 strain of Gram positive bacteria Staphylococcus aureus
Streptococcus pneumoniae [3] = assay: In vitro antibacterial activity of ATCC 6303 strain of Gram positive bacteria Streptococcus pneumoniae
Staphylococcus aureus [4] = assay: In vitro antibacterial activity of 6538P strain of Gram positive bacteria Staphylococcus aureus
Streptococcus pyogenes [5] = assay: In vitro antibacterial activity of EES61 strain of Gram positive bacteria Streptococcus pyogenes
Streptococcus pneumoniae [6] = assay: In vitro antibacterial activity of 5979 strain of Gram positive bacteria Streptococcus pneumoniae
Streptococcus pneumoniae [7] = assay: In vitro antibacterial activity of 5649 strain of Gram positive bacteria Streptococcus pneumoniae
Streptococcus pyogenes [8] = assay: In vitro antibacterial activity of PIU2584 strain of Gram positive bacteria Streptococcus pyogenes
Streptococcus pyogenes [9] = assay: In vitro antibacterial activity of 930 strain of Gram positive bacteria Streptococcus pyogenes

Row | SMILES | MIC (Haemophilus influenzae) [µg/mL] | MIC (Staphylococcus aureus [1]) [µg/mL] | MIC (Staphylococcus aureus [2]) [µg/mL] | MIC (Streptococcus pneumoniae [3]) [µg/mL] | MIC (Staphylococcus aureus [4]) [µg/mL] | MIC (Streptococcus pyogenes [5]) [µg/mL] | MIC (Streptococcus pneumoniae [6]) [µg/mL] | MIC (Streptococcus pneumoniae [7]) [µg/mL] | MIC (Streptococcus pyogenes [8]) [µg/mL] | MIC (Streptococcus pyogenes [9]) [µg/mL]
1 | CC[C@H]1OC(=O)/C(C)=C/[C@H](C)[C@@H](O[C@@H]2O[C@H](C)C[C@H](N(C)C)[C@H]2O)[C@@](C)(OC)C[C@@H](C)C(=O)[C@H](C)[C@H]2N(NCCCc3ccccc3O)C(=O)O[C@]12C | 16 (≈ 21.4 µM) | 0.2 (≈ 0.268 µM) | > 100 | 0.03 (≈ 0.0402 µM) | 0.2 (≈ 0.268 µM) | 0.03 (≈ 0.0402 µM) | > 128 | 2 (≈ 2.68 µM) | 2 (≈ 2.68 µM) | > 128
2 | CC[C@H]1OC(=O)/C(C)=C/[C@H](C)[C@@H](O[C@@H]2O[C@H](C)C[C@H](N(C)C)[C@H]2O)[C@@](C)(OC)C[C@@H](C)C(=O)[C@H](C)[C@H]2N(NCc3ccc(OC)cc3)C(=O)O[C@]12C | 8 (≈ 10.9 µM) | 0.2 (≈ 0.273 µM) | > 100 | 0.125 (≈ 0.171 µM) | 0.2 (≈ 0.273 µM) | 0.03 (≈ 0.041 µM) | > 64 | 2 (≈ 2.73 µM) | 1 (≈ 1.37 µM) | > 64
3 | CC[C@H]1OC(=O)/C(C)=C/[C@H](C)[C@@H](O[C@@H]2O[C@H](C)C[C@H](N(C)C)[C@H]2O)[C@@](C)(OC)C[C@@H](C)C(=O)[C@H](C)[C@H]2N(NCc3ccccc3O)C(=O)O[C@]12C | 2 (≈ 2.79 µM) | 0.2 (≈ 0.279 µM) | > 100 | 0.06 (≈ 0.0836 µM) | 0.2 (≈ 0.279 µM) | 0.03 (≈ 0.0418 µM) | > 64 | 2 (≈ 2.79 µM) | 0.5 (≈ 0.696 µM) | > 64
4 | CC[C@H]1OC(=O)/C(C)=C/[C@H](C)[C@@H](O[C@@H]2O[C@H](C)C[C@H](N(C)C)[C@H]2O)[C@@](C)(OC)C[C@@H](C)C(=O)[C@H](C)[C@H]2N(NCCc3ccccc3)C(=O)O[C@]12C | > 64 | 0.78 (≈ 1.09 µM) | > 100 | 0.25 (≈ 0.349 µM) | 0.78 (≈ 1.09 µM) | 0.25 (≈ 0.349 µM) | > 64 | 2 (≈ 2.79 µM) | 2 (≈ 2.79 µM) | 64 (≈ 89.4 µM)
5 | CC[C@H]1OC(=O)/C(C)=C/[C@H](C)[C@@H](O[C@@H]2O[C@H](C)C[C@H](N(C)C)[C@H]2O)[C@@](C)(OC)C[C@@H](C)C(=O)[C@H](C)[C@H]2N(NCCCc3ccnc4ccccc34)C(=O)O[C@]12C | 2 (≈ 2.56 µM) | 0.1 (≈ 0.128 µM) | > 100 | 0.004 (≈ 0.00512 µM) | 0.2 (≈ 0.256 µM) | 0.004 (≈ 0.00512 µM) | > 64 | 1 (≈ 1.28 µM) | 0.5 (≈ 0.64 µM) | > 64
6 | CC[C@H]1OC(=O)/C(C)=C/[C@H](C)[C@@H](O[C@@H]2O[C@H](C)C[C@H](N(C)C)[C@H]2O)[C@@](C)(OC)C[C@@H](C)C(=O)[C@H](C)[C@H]2N(NCc3ccc(NC(C)=O)cc3)C(=O)O[C@]12C | 4 (≈ 5.27 µM) | 0.78 (≈ 1.03 µM) | > 100 | 0.125 (≈ 0.165 µM) | 0.78 (≈ 1.03 µM) | 0.03 (≈ 0.0395 µM) | > 64 | 1 (≈ 1.32 µM) | 2 (≈ 2.64 µM) | > 64
7 | CC[C@H]1OC(=O)/C(C)=C/[C@H](C)[C@@H](O[C@@H]2O[C@H](C)C[C@H](N(C)C)[C@H]2O)[C@@](C)(OC)C[C@@H](C)C(=O)[C@H](C)[C@H]2N(NCc3c[nH]c4ccccc34)C(=O)O[C@]12C | 8 (≈ 10.8 µM) | 0.39 (≈ 0.526 µM) | > 100 | 0.125 (≈ 0.169 µM) | 0.39 (≈ 0.526 µM) | 0.06 (≈ 0.081 µM) | > 64 | 1 (≈ 1.35 µM) | 0.5 (≈ 0.675 µM) | > 64
8 | CC[C@H]1OC(=O)/C(C)=C/[C@H](C)[C@@H](O[C@@H]2O[C@H](C)C[C@H](N(C)C)[C@H]2O)[C@@](C)(OC)C[C@@H](C)C(=O)[C@H](C)[C@H]2N(NCc3ccccn3)C(=O)O[C@]12C | 8 (≈ 11.4 µM) | 0.39 (≈ 0.555 µM) | > 100 | 0.06 (≈ 0.0854 µM) | 0.39 (≈ 0.555 µM) | 0.06 (≈ 0.0854 µM) | > 128 | 1 (≈ 1.42 µM) | 1 (≈ 1.42 µM) | > 128
9 | CC[C@H]1OC(=O)/C(C)=C/[C@H](C)[C@@H](O[C@@H]2O[C@H](C)C[C@H](N(C)C)[C@H]2O)[C@@](C)(OC)C[C@@H](C)C(=O)[C@H](C)[C@H]2N(NCCCc3ccc(Cl)cc3)C(=O)O[C@]12C | 16 (≈ 20.9 µM) | 0.05 (≈ 0.0654 µM) | 25 (≈ 32.7 µM) | 0.03 (≈ 0.0392 µM) | 0.1 (≈ 0.131 µM) | 0.125 (≈ 0.164 µM) | 16 (≈ 20.9 µM) | 1 (≈ 1.31 µM) | 1 (≈ 1.31 µM) | 16 (≈ 20.9 µM)
10 | CC[C@H]1OC(=O)/C(C)=C/[C@H](C)[C@@H](O[C@@H]2O[C@H](C)C[C@H](N(C)C)[C@H]2O)[C@@](C)(OC)C[C@@H](C)C(=O)[C@H](C)[C@H]2N(NC/C=C/c3cccc4ccccc34)C(=O)O[C@]12C | 16 (≈ 20.6 µM) | 0.39 (≈ 0.501 µM) | 25 (≈ 32.1 µM) | 0.125 (≈ 0.161 µM) | 0.39 (≈ 0.501 µM) | 0.125 (≈ 0.161 µM) | 16 (≈ 20.6 µM) | 1 (≈ 1.29 µM) | 1 (≈ 1.29 µM) | 8 (≈ 10.3 µM)
11 | CC[C@H]1OC(=O)/C(C)=C/[C@H](C)[C@@H](O[C@@H]2O[C@H](C)C[C@H](N(C)C)[C@H]2O)[C@@](C)(OC)C[C@@H](C)C(=O)[C@H](C)[C@H]2N(NCCCc3ccc(NC(C)=O)cc3)C(=O)O[C@]12C | 8 (≈ 10.2 µM) | 0.39 (≈ 0.496 µM) | > 100 | 0.06 (≈ 0.0762 µM) | 0.39 (≈ 0.496 µM) | 0.06 (≈ 0.0762 µM) | > 128 | 2 (≈ 2.54 µM) | 2 (≈ 2.54 µM) | > 128
12 | CC[C@H]1OC(=O)/C(C)=C/[C@H](C)[C@@H](O[C@@H]2O[C@H](C)C[C@H](N(C)C)[C@H]2O)[C@@](C)(OC)C[C@@H](C)C(=O)[C@H](C)[C@H]2N(NCCCc3ccccc3[N+](=O)[O-])C(=O)O[C@]12C | 8 (≈ 10.3 µM) | 0.01 (≈ 0.0129 µM) | > 100 | 0.03 (≈ 0.0387 µM) | 0.1 (≈ 0.129 µM) | 0.03 (≈ 0.0387 µM) | 128 (≈ 165 µM) | 1 (≈ 1.29 µM) | 0.5 (≈ 0.645 µM) | 64 (≈ 82.6 µM)
13 | CC[C@H]1OC(=O)/C(C)=C/[C@H](C)[C@@H](O[C@@H]2O[C@H](C)C[C@H](N(C)C)[C@H]2O)[C@@](C)(OC)C[C@@H](C)C(=O)[C@H](C)[C@H]2N(NCCc3ccc(Oc4ccccc4)cc3)C(=O)O[C@]12C | > 64 | 1.56 (≈ 1.93 µM) | 25 (≈ 30.9 µM) | 0.25 (≈ 0.309 µM) | 1.56 (≈ 1.93 µM) | 0.25 (≈ 0.309 µM) | 16 (≈ 19.8 µM) | 2 (≈ 2.48 µM) | 2 (≈ 2.48 µM) | 8 (≈ 9.9 µM)
14 | CC[C@H]1OC(=O)/C(C)=C/[C@H](C)[C@@H](O[C@@H]2O[C@H](C)C[C@H](N(C)C)[C@H]2O)[C@@](C)(OC)C[C@@H](C)C(=O)[C@@H](C)[C@H]2N(NC/C=C/c3ccccc3)C(=O)O[C@]12C | > 64 | 6.2 (≈ 8.52 µM) | 50 (≈ 68.7 µM) | 1 (≈ 1.37 µM) | 12.5 (≈ 17.2 µM) | 4 (≈ 5.49 µM) | 16 (≈ 22 µM) | 4 (≈ 5.49 µM) | 8 (≈ 11 µM) | 16 (≈ 22 µM)
15 | CC[C@H]1OC(=O)/C(C)=C/[C@H](C)[C@@H](O[C@@H]2O[C@H](C)C[C@H](N(C)C)[C@H]2O)[C@@](C)(OC)C[C@@H](C)C(=O)[C@H](C)[C@H]2N(NCCCc3ccc(OC)cc3)C(=O)O[C@]12C | 16 (≈ 21.1 µM) | 0.39 (≈ 0.513 µM) | > 100 | 0.06 (≈ 0.0789 µM) | 0.39 (≈ 0.513 µM) | 0.03 (≈ 0.0395 µM) | > 64 | 2 (≈ 2.63 µM) | 1 (≈ 1.32 µM) | 64 (≈ 84.2 µM)
16 | CC[C@H]1OC(=O)/C(C)=C/[C@H](C)[C@@H](O[C@@H]2O[C@H](C)C[C@H](N(C)C)[C@H]2O)[C@@](C)(OC)C[C@@H](C)C(=O)[C@H](C)[C@H]2N(NCCCc3cccc(O)c3)C(=O)O[C@]12C | 4 (≈ 5.36 µM) | 0.1 (≈ 0.134 µM) | > 100 | 0.03 (≈ 0.0402 µM) | 0.1 (≈ 0.134 µM) | 0.06 (≈ 0.0804 µM) | > 128 | 0.5 (≈ 0.67 µM) | 1 (≈ 1.34 µM) | 128 (≈ 172 µM)
